# Measured values published in patent US20040023362A1, “Degradation of polycyclic aromatic hydrocarbons by microorganisms” (priority 2000, published 2004).
# Columns and labels:
# [1] = system: Bacterial consortium VUN 10,009; assay: Degradation of high molecular weight PAHs by axenic cultures; assay type: cell-based
# Protocol: (§1) PAH concentrations in the DCM extracts were measured on a Varian Star 3400 gas chromatograph, equipped with a flame ionization detector, using a BPX-5 capillary column (25 m×0.22 mm). The nitrogen carrier flow rate was 0.8 ml min^−1 with a pressure of 20 psi under split conditions (95:1). The oven temperature was programmed at 200° C. for 1 min, followed by a linear increase of 10° C. min^−1 to 320° C.; this temperature was held for 15 min. Injector and detector temperatures were maintained at 300° C. The peak areas of both internal standard and PAH were used to calculate peak area ratios. Ratios obtained for each sample, as well as controls, were compared to those of PAH standards.
# (§2) PAH degradation experiments using axenic bacterial and fungal cultures, and fungal-bacterial co-culture, were performed in 30 ml reaction vials containing 10 ml of medium. Before inoculation, 0.1 ml of PAH stock solution (either single PAH or mixed PAH stock as described above) was introduced into the medium. This medium was then inoculated with microorganisms to produce either axenic cultures or co-cultures. Axenic cultures were inoculated with either bacteria (1 ml) to provide an initial cell population of approximately 10^4 cells ml^−1, or with mycelial pellets (0.25 g wet weight) in 10 ml of BSM. For the co-culture experiments, BSM (10 ml) contained bacteria (10^4 cells ml^−1) and 0.25 g wet weight of mycelial pellets. Experiments to investigate of co-metabolic PAH degradation by P. janthinellum were conducted with the PAH in BSM supplemented with glucose (1% final concentration) or MYPD medium. […] Medium (10 ml) was inoculated with fungal or bacterial culture using the same inoculum size as described above. All cultures were aseptically flushed with filtered (0.22 μm) air (0.2 litres min^−1) for 5 seconds on the day of inoculation and every 7 days thereafter. Abiotic controls were sterile medium containing only PAH(s). Killed-cell controls were the PAH-containing medium inoculated with a killed microbial population. The experimental cultures were conducted in triplicate, and all controls were run in duplicate. All cultures were incubated in the dark at 30° C./175 rpm. At designated time intervals the entire culture (10 ml) was sacrificed for the PAH-extraction procedure and biomass determinations.
# [2] = system: VUN 10,010; assay: as above; assay type: cell-based, Stenotrophomonas maltophilia
# Protocol: as §1, §2
# [3] = system: P. janthinellum VUO 10,201; assay: as above; assay type: cell-based, Penicillium janthinellum
# Protocol: as §1, §2
# [4] = system: S. maltophilia VUN 10,010; assay: Degradation of single high molecular weight PAHs by high initial populations of VUN 10,010 with surfactant; assay type: cell-based, Stenotrophomonas maltophilia
# Protocol: […] Incubations contained a single PAH in BSM at 30° C. The PAH remaining was calculated as a percentage relative to the PAH recovered from the […]. Averages for the test cultures are from triplicate experiments.
# Tergitol NP-10 (5 and 10 g l^−1) was added to BSM broths each containing a single high molecular weight PAH.
# [5] = system: S. maltophilia VUN 10,010; assay: Degradation of a PAH mixture by VUN 10,010 with surfactant, low initial cell population; assay type: cell-based, Stenotrophomonas maltophilia; settings: for Maximum Specific Degradation Rate: — = not appreciable
# Protocol: The incubations were conducted in BSM at 30° C., using low initial cell populations. The PAH remaining was calculated as a percentage relative to the PAH recovered from the uninoculated control. Averages for the test cultures are from triplicate experiments.
# A low initial cell population of around 9×10^3 cells ml^−1 was used.
# [6] = physchem
# Protocol: PAHs (approximately 1 g l^−1) were added to a 10 ml solution of BSM plus surfactant in a 30 ml glass reaction vial, which was sealed with an aluminium cap fitted with a septum. Surfactant concentrations corresponded to levels above, below, and at the CMC, and replicates were set up to allow sampling in duplicate at different time intervals up to 72 h. Incubation was performed at 30° C. and 175 rpm. The entire vial contents was collected by syringe and expressed through a preconditioned membrane filter (0.22 μm, Sartorius AG, Germany) to remove solid-phase crystalline PAH while allowing solubilized PAH in the aqueous phase and micellar pseudophase to pass into sterile vials. The filter was preconditioned by purging the filter with a few mls of sample solution to allow sorption saturation of the internal surfaces of the syringe, filter and needle. The filtrates were extracted with dichloromethane (DCM), and the concentration of solubilized PAH was determined by GC-FID as described below.
# The effectiveness of a particular surfactant in solubilizing a given PAH can be assessed by determining the molar solubilization ratio (MSR) and micelle/water partition coefficient (Km). In our study, the concentrations of added PAHs were well in excess of aqueous saturation concentrations; therefore the MSR value of each compound can be obtained from the slope of the curve generated from a plot of PAH concentration versus surfactant concentration for surfactant concentrations above CMC (Edwards et al, 1991).
# Km values can be determined from the measured MSR values according to the following equation (Edwards et al, 1991): [formula]
# ^SPAH, CMC is the apparent solubility of the PAH (mol l^−1) at surfactant CMC. VW is the molar volume of water at 30° C. ie. 0.018015 l mol^−1(Rogers and Mayhew, 1981).
# [7] = system: strain VUN 10,010; assay: Agar (well) diffusion toxicity test of surfactants; assay type: cell-based, Stenotrophomonas maltophilia; settings: peptone-glucose agar, 30° C.
# Protocol: The agar diffusion method was used to determine the effects of surfactants on growth by observing zones of inhibition on peptone-glucose agar (Cserhali et al, 1991). The medium contained per litre: 5 g peptone, 5 g glucose, 0.5 g NaCl, 3 g beef extract, 20 g agar; the pH was adjusted to 7.0 and sterilized by autoclaving for 15 min at 121° C. Bacterial cultures were mixed with the molten medium (25 ml) to obtain an inoculum size of approximately 10^8 cells ml^−1, and this was poured into a Petri dish. Once the cell-medium mixture had solidified, 7 mm diameter holes were made, and 150 μl of aqueous surfactant solutions was added (0.1-10.0 g l^−1). Growth inhibition zones were observed after 48-72 h at 30° C.
# [8] = BSM + PYR (pyrene 250 mg l^−1), 28 day samples
# [9] = Tergitol NP-10 5 g l^−1, Single PAH
# [10] = Tergitol NP-10 10 g l^−1, Single PAH
# [11] = Tergitol NP-10 5 g l^−1, Mixed PAH
SMILES,"PAH removal (%) [1, 8]","PAH removal (%) ([1]; BSM, 56 day samples)","PAH removal (%) [2, 8]","PAH removal (%) ([2]; BSM, 56 day samples)","PAH removal (%) ([3]; BSM, 56 day samples)","PAH removal (%) ([3]; BSM^g, 28 day samples)","PAH removal (%) ([3]; MYPD, 28 day samples)","Maximum Specific Degradation Rate ([4]; Brij 35 5 g l^−1, Single PAH)","percentage change in maximum specific degradation rate due to surfactant addition ([4]; Brij 35 5 g l^−1, Single PAH)","Maximum Specific Degradation Rate ([4]; Brij 35 10 g l^−1, Single PAH)","percentage change in maximum specific degradation rate due to surfactant addition ([4]; Brij 35 10 g l^−1, Single PAH)","Maximum Specific Degradation Rate ([4]; No Surfactant, Single PAH)","Maximum Specific Degradation Rate [4, 9]","percentage change in maximum specific degradation rate due to surfactant addition [4, 9]","Maximum Specific Degradation Rate [4, 10]","percentage change in maximum specific degradation rate due to surfactant addition [4, 10]","Maximum Specific Degradation Rate ([5]; No Surfactant, Mixed PAH)","percentage change in maximum specific degradation rate due to surfactant addition [5, 11]","Maximum Specific Degradation Rate [5, 11]",also measured
"c1ccc2cc3c(ccc4ccccc43)cc2c1 [Benz[a]anthracene, benz[a]anthracene]",9.6 + 0.7%,7.8 ± 0.3%,19.84 + 0.3%,8.2 ± 1.6%,9.1 ± 1.4%,18.1 ± 2.3%,23.1 ± 1.2%,7.18 mg PAH degraded mg^−1 protein day^−1,+63%,7.37 mg PAH degraded mg^−1 protein day^−1,+67%,4.41 mg PAH degraded mg^−1 protein day^−1,9.66 mg PAH degraded mg^−1 protein day^−1,+119%,11.14 mg PAH degraded mg^−1 protein day^−1,+153%,1.71 mg PAH degraded mg^−1 protein day^−1,+90%,3.25 mg PAH degraded mg^−1 protein day^−1,–
"c1ccc2c(c1)cc1ccc3cccc4ccc2c1c34 [Benzo[a]pyrene, benzo[a]pyrene]",23.3 + 0.5%,6.7 ± 0.9%,32.2 + 1.2%,12.3 ± 1.0%,16.9 ± 0.2%,56.5 ± 2.4%,72.2 ± 3.2%,5.84 mg PAH degraded mg^−1 protein day^−1,−6%,5.47 mg PAH degraded mg^−1 protein day^−1,−12%,6.21 mg PAH degraded mg^−1 protein day^−1,6.73 mg PAH degraded mg^−1 protein day^−1,+8%,7.90 mg PAH degraded mg^−1 protein day^−1,27%,1.43 mg PAH degraded mg^−1 protein day^−1,+201%,4.30 mg PAH degraded mg^−1 protein day^−1,"solubility ([6]; 30° C.): ~0.0159 µM; solubility ([6]; 30 °C, aqueous with cosolvent or surfactant or cyclodextrin, thermodynamic from solid): 160 to 180 µM"
CCCCCCCCCCCCCCCC[N+](C)(C)C.[Br-] [CTAB],–,–,–,–,–,–,–,–,–,–,–,–,–,–,–,–,–,–,–,inhibitory concentration in well diffusion toxicity test [7]: 0.01 to 0.05 g/L
"c1ccc2c(c1)ccc1c3ccccc3ccc21 [Chrysene, chrysene]",12.1 + 0.4%,8.2 ± 0.5%,28.3 + 1.2%,9.1 ± 1.2%,12.2 ± 0.4%,25.6 ± 1.9%,31.7 ± 3.7%,7.35 mg PAH degraded mg^−1 protein day^−1,+64%,7.93 mg PAH degraded mg^−1 protein day^−1,+77%,4.49 mg PAH degraded mg^−1 protein day^−1,6.44 mg PAH degraded mg^−1 protein day^−1,+43%,4.16 mg PAH degraded mg^−1 protein day^−1,−7%,1.42 mg PAH degraded mg^−1 protein day^−1,+94%,2.76 mg PAH degraded mg^−1 protein day^−1,"PAH degradation rate in the presence of surfactants ([4]; Tergitol NP-10 5 and 10 g l^−1, high initial cell population): did not show improved PAH degradation rate"
"c1ccc2c(c1)ccc1cc3c(ccc4ccccc43)cc12 [Dibenz[a,h]anthracene, dibenz[a,h]anthracene]",13.8 + 0.9%,5.9 ± 0.5%,26.7 + 0.7%,7.8 ± 0.6%,12.9 ± 0.3%,24.4 ± 2.7%,36.7 ± 1.7%,6.26 mg PAH degraded mg^−1 protein day^−1,+50%,7.20 mg PAH degraded mg^−1 protein day^−1,+73%,4.17 mg PAH degraded mg^−1 protein day^−1,7.32 mg PAH degraded mg^−1 protein day^−1,+76%,8.74 mg PAH degraded mg^−1 protein day^−1,110%,1.20 mg PAH degraded mg^−1 protein day^−1,+140%,2.89 mg PAH degraded mg^−1 protein day^−1,"concentration in the aqueous phase ([6]; at surfactant CMC, gas chromatograph): below the detection limit"
"c1cc2ccc3cccc4ccc(c1)c2c34 [Pyrene, pyrene]",–,100.0 ± 0.0%,–,100.0 ± 0.0%,3.3 ± 0.3%,80.3 ± 2.8%,93.6 ± 2.8%,–,–,–,–,–,–,–,–,–,–,–,–,–
CCCCCCCCCCCCOS(=O)(=O)[O-].[Na+] [SDS],–,–,–,–,–,–,–,–,–,–,–,–,–,–,–,–,–,–,–,MIC [7]: 200 µg/mL
